Positions of bridges follow the written chain, without caps; N, C: chain ends. Non-standard residues stand in square brackets, D forms with d. Residues, ends and D or L forms follow the SMILES beside them. Groups on a side chain read outwards from the residue. *: point of attachment. X1 = C[N+](C)(CCNC(=O)CCCCCCCCCCCCCCCCC(=O)O)CC(=O)*; C18 diacid = O=C(O)CCCCCCCCCCCCCCCCC(=O)*; Dip = N[C@H](C(=O)O)C(c1ccccc1)c1ccccc1; Pro(3R-OH) = O=C(O)[C@H]1NCC[C@H]1O; NMeT = CN[C@H](C(=O)O)[C@@H](C)O; β3hF = N[C@H](CC(=O)O)Cc1ccccc1; Aad = N[C@@H](CCCC(=O)O)C(=O)O; NMeK = CN[C@@H](CCCCN)C(=O)O; Isovaleryl = CC(C)CC(=O)*; Dap = NC[C@H](N)C(=O)O; AEEA = NCCOCCOCC(=O)O; Ahx = NCCCCCC(=O)O

The first experiment concerns the target T1, ferroportin (Homo sapiens, UniProt Q9NP59).
T1 sequence (Q9NP59 1-571): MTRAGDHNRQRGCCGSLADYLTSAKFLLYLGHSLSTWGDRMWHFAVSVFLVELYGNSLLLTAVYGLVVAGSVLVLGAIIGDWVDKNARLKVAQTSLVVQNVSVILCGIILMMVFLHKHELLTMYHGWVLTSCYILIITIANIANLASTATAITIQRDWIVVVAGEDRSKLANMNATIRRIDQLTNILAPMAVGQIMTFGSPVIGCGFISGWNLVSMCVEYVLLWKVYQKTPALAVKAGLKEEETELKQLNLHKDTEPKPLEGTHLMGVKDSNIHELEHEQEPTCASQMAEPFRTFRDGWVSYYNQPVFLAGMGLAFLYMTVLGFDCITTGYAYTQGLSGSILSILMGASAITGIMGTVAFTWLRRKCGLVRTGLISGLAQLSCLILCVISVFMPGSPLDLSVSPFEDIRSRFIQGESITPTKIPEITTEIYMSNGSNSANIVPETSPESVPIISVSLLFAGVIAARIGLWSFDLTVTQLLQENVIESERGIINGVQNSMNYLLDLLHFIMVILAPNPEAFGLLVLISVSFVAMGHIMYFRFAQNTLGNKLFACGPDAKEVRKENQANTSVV
Nature of the experiment: T47D cell-based ferroportin internalization assay in presence of mouse serum albumin (MSA). Set-up: a human breast carcinoma adherent cell line which endogenously expresses ferroportin; host or cells: T47D. To be noted: T47D internalization assay in presence of mouse serum albumin (MSA); Table 6E. In a few lines:
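Peptide potency for inducing ferroportin internalization was measured in T47D cells in the presence of serum albumin. Cells grown in RPMI with fetal bovine serum were seeded in 96-well plates at 80-100 k cells per well in 100 ul and rested overnight. Dilution series of test peptides were preincubated 30 min at room temperature, then added to the cells after the medium was aspirated.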
On to `CC(C)CC(=O)N[C@@H](CCCC(=O)O)C(=O)N[C@H](C(=O)N[C@@H](Cc1c[nH]cn1)C(=O)N[C@H](C(=O)N1CCC[C@H]1C(=O)N[C@H]1CSSC[C@@H](C(=O)N(C)[C@@H](CCCCNC(=O)COCCOCCNC(=O)COCCOCCNC(=O)[C@H](CN)NC(=O)CCCCCCCCCCCCCCCCC(=O)O)C(=O)N[C@H](CC(=O)N[C@H](CCCCN)C(N)=O)Cc2ccccc2)NC1=O)C(c1ccccc1)c1ccccc1)[C@@H](C)O` [compound 244] (Isovaleryl-[Aad]TH[Dip]PCC[NMeK]([AEEA-AEEA-Dap-C18 diacid])[β3hF][dK]-NH2; disulfide 6-7), for which the IC50 (in general, the concentration needed to halve the response being measured) was in the range of 10 to 100 nM.

The same experiment, now with this note: Table 6E; T47D internalization assay with MSA.
As to `COC(=O)CC[C@H](NC(=O)CC(C)C)C(=O)N[C@H](C(=O)N[C@@H](Cc1c[nH]cn1)C(=O)N[C@H](C(=O)N1CCC[C@H]1C(=O)N[C@H]1CSSC[C@@H](C(=O)N[C@H](CCCCNC(=O)CCCCCNC(=O)C[N+](C)(C)CCNC(=O)CCCCCCCCCCCCCCCCC(=O)O)C(=O)N[C@H](C(=O)N[C@H](CCCCN)C(N)=O)C(c2ccccc2)c2ccccc2)NC1=O)C(c1ccccc1)c1ccccc1)[C@@H](C)O` [compound 208] (Isovaleryl-E(OMe)TH[Dip]PCC[dK]([Ahx-X1])[Dip][dK]-NH2; disulfide 6-7), the IC50 lay in the range of 10 to 100 nM. For `CC(C)CC(=O)N[C@@H](CCC(=O)O)C(=O)N1CCC[C@H]1C(=O)N[C@@H](Cc1c[nH]cn1)C(=O)N[C@H](C(=O)N1CCC[C@H]1C(=O)N[C@H]1CSSC[C@@H](C(=O)N(C)[C@@H](CCCCNC(=O)CCCCCNC(=O)C[N+](C)(C)CCNC(=O)CCCCCCCCCCCCCCCCC(=O)O)C(=O)N[C@H](C(=O)N[C@H](CCCCN)C(N)=O)C(c2ccccc2)c2ccccc2)NC1=O)C(c1ccccc1)c1ccccc1` [compound 188] (Isovaleryl-EPH[Dip]PCC[NMeK]([Ahx-X1])[Dip][dK]-NH2; disulfide 6-7), the IC50 is greater than 500 nM.

With `CC(C)CC(=O)N[C@@H](CCC(=O)O)C(=O)N1CC[C@@H](O)[C@H]1C(=O)N[C@@H](Cc1c[nH]cn1)C(=O)N[C@H](C(=O)N1CCC[C@H]1C(=O)N[C@H]1CSSC[C@@H](C(=O)N(C)[C@@H](CCCCNC(=O)CCCCCNC(=O)C[N+](C)(C)CCNC(=O)CCCCCCCCCCCCCCCCC(=O)O)C(=O)N[C@H](C(=O)N(C)[C@@H](CCCCN)C(N)=O)C(c2ccccc2)c2ccccc2)NC1=O)C(c1ccccc1)c1ccccc1` [compound 156] (Isovaleryl-E[Pro(3R-OH)]H[Dip]PCC[NMeK]([Ahx-X1])[Dip][NMeK]-NH2; disulfide 6-7), the IC50 was 10 to 100 nM. For `CC(C)CC(=O)N[C@@H](CCC(=O)O)C(=O)N(C)[C@H](C(=O)N[C@@H](Cc1c[nH]cn1)C(=O)N[C@H](C(=O)N1CCC[C@H]1C(=O)N[C@H]1CSSC[C@@H](C(=O)N(C)[C@@H](CCCCNC(=O)C[N+](C)(C)CCNC(=O)CCCCCCCCCCCCCCCCC(=O)O)C(=O)N[C@H](C(=O)N[C@H](CCCCN)C(N)=O)C(c2ccccc2)c2ccccc2)NC1=O)C(c1ccccc1)c1ccccc1)[C@@H](C)O` [compound 187] (Isovaleryl-E[NMeT]H[Dip]PCC[NMeK](X1)[Dip][dK]-NH2; disulfide 6-7), the IC50 was 10 to 100 nM. Turning to `COC(=O)CC[C@H](NC(=O)CC(C)C)C(=O)N1CC[C@@H](O)[C@H]1C(=O)N[C@@H](Cc1c[nH]cn1)C(=O)N[C@H](C(=O)N1CCC[C@H]1C(=O)N[C@H]1CSSC[C@@H](C(=O)N(C)[C@@H](CCCCNC(=O)CCCCCNC(=O)C[N+](C)(C)CCNC(=O)CCCCCCCCCCCCCCCCC(=O)O)C(=O)N[C@H](C(=O)N[C@H](CCCCN)C(N)=O)C(c2ccccc2)c2ccccc2)NC1=O)C(c1ccccc1)c1ccccc1` [compound 155] (Isovaleryl-E(OMe)[Pro(3R-OH)]H[Dip]PCC[NMeK]([Ahx-X1])[Dip][dK]-NH2; disulfide 6-7), the half-inhibitory concentration (IC50) is 10 to 100 nM.

For the origin of these results see patent US20250277012A1 (Protagonist Therapeutics, Inc., priority 2021, published 2025).
